In US7112612B2, “N-alkylated GABA compounds, processes for their preparation and their use as medicaments” (UCB S.A., priority 2000, dated 2006):

Test system: genetically sound-sensitive mice (audiogenic seizures)
Assay: audiogenic seizures test in sound-susceptible mice
Assay type: in vivo
Details: Mus musculus, ip, 1 h; dose producing 50% protection against clonic convulsions relative to control; intraperitoneally 60 minutes before induction of audiogenic seizures (90 dB, 10–20 kHz, 30 seconds); Probit Analysis; read-out: Clonic Convulsion (ED50)
Excerpt: The potent activity of the compounds of formula (I) or (II), or their pharmaceutically acceptable salts, as anticonvulsants was evidenced by audiogenic seizures test induced in sound-susceptible mice. These examples illustrate the invention without in any way limiting its scope. The objective of the following pharmacological test is to evaluate the anticonvulsant potency of a compound in sound-susceptible mice, a genetic animal model with reflex seizures. In this model of primary generalised epilepsy, seizures are evoked without electrical or chemical stimulation and the seizure types are, at least in part, similar in their clinical phenomenology to seizures occurring in man (Löscher W. & Schmidt D., Epilepsy Res. (1998), 2, p. 145–181; Buchhalter J. R., Epilepsia (1993), 34, S31–S41). The results obtained with the tested compounds of formula (I) and (II) show a strong pharmacological effect (see Table 4).
In order to study the activity of the compounds of formula (I) and (II) including the (S) and (R) forms of ethyl 4-{[1-(aminocarbonyl)propyl]amino}butanoate, as anticonvulsant, the applicant performed out a series of experiments based on the audiogenic seizures test in mice.
The objective of the following pharmacological test is to evaluate the anticonvulsant potency of a compound in sound-susceptible mice, a genetic animal model with reflex seizures. In this model of primary generalised epilepsy, seizures are evoked without electrical or chemical stimulation and the seizure types are, at least in part, similar in their clinical phenomenology to seizures occurring in man (Löscher W. and Schmidt D., Epilepsy Res. (1998), 2, p. 145–181; Buchhalter J. R., Epilepsia (1993), 34, S31–S41).
Male or female genetically sound-sensitive mice (14–28 g; N=10), derived from a DBA (Dilute Brown Agouti) strain originally selected by Dr. Lehmann of the Laboratory of Acoustic Physiology (Paris) and bred in the UCB Pharma Sector husbandry unit since 1978, were used. The experimental design consisted of several groups, one group receiving the vehicle control and the other groups different doses of the test-compound. The compounds were administered intraperitoneally 60 minutes before the induction of audiogenic seizures.
For testing, the animals were placed in small cages, one mouse per cage, in a sound-attenuated chamber. After a period of orientation of 30 seconds, the acoustic stimulus (90 dB, 10–20 kHz) was delivered for 30 seconds via loud speakers positioned above each cage; During this interval, the mice were observed and the presence of the 3 phases of the seizure activity, namely wild running, clonic and tonic convulsions, was recorded. The proportion of mice protected against wild running, clonic and tonic convulsions, respectively, was calculated.
For active compounds, an ED50 value, i.e. the dose producing 50% protection relative to the control group, together with 95% confidence limits, was calculated using a Probit Analysis (SAS/STATR Software, Version 6.09, PROBIT procedure) of the proportions of protected mice for each of the 3 phases of the seizure activity.

| Compound | ED50 [µmol/kg] |
| --- | --- |
| CCOC(=O)CCCN[C@@H](CC)C(N)=O [D, ethyl 4-{[(1S)-1-(aminocarbonyl)propyl]amino}butanoate] | 68 |
| CC[C@H](NCCCC(=O)SC(C)C)C(N)=O [W, S-isopropyl 4-{[(1S)-1-(aminocarbonyl)propyl]amino}butanethioate] | 540 |
| CCCCCCCCOC(=O)CCCN[C@@H](CC)C(N)=O [L, octyl 4-{[(1S)-1-(aminocarbonyl)propyl]amino}butanoate] | 160 |
| CCOC(=O)CCCNC(CC)C(N)=O (racemic) [C, ethyl 4-{[1-(aminocarbonyl)propyl]amino}butanoate] | 320 |
| CCCOC(=O)CCCN[C@@H](CC)C(N)=O [P, propyl 4-{[(1S)-1-(aminocarbonyl)propyl]amino}butanoate] | 200 |
| CC[C@H](NCCCC(=O)OCCC12CC3CC(CC(C3)C1)C2)C(N)=O [I, 2-(1-adamantyl)ethyl 4-{[(1S)-1-(aminocarbonyl)propyl]amino}butanoate] | 130 |
| CC[C@H](NCCCC(=O)OC)C(N)=O [F, methyl 4-{[(1S)-1-(aminocarbonyl)propyl]amino}butanoate] | 160 |
| CC[C@H](NCCCC(=O)OCC(C)C)C(N)=O [M, isobutyl 4-{[(1S)-1-(aminocarbonyl)propyl]amino}butanoate] | 360 |
| CCCC(CCC)COC(=O)CCCN[C@@H](CC)C(N)=O [O, 2-propylpentyl 4-{[(1S)-1-(aminocarbonyl)propyl]amino}butanoate] | 120 |
| CCCCOC(=O)CCCN[C@@H](CC)C(N)=O [K, butyl 4-{[(1S)-1-(aminocarbonyl)propyl]amino}butanoate] | 1000 |
| CCC(NCCCC(=O)OC(C)(C)C)C(N)=O [H, tertiobutyl 4-{[(1S)-1-(aminocarbonyl)propyl]amino}butanoate] | 520 |
| CC[C@H](NCCCC(=O)OC1CCCC1)C(N)=O [J, cyclopentyl 4-{[(1S)-1-(aminocarbonyl)propyl]amino}butanoate] | 340 |
| CC[C@H](NCCCC(=O)OC(C)C)C(N)=O [G, isopropyl 4-{[(1S)-1-(aminocarbonyl)propyl]amino}butanoate] | 150 |
| CC[C@H](NCCCC(=O)OCc1ccccc1)C(N)=O [Compound N, benzyl 4-{[(1S)-1-(aminocarbonyl)propyl]amino)butanoate] | 220 |
